Key:
Mus musculus [1] = assay: In vivo percent inhibition of multiple sclerosis (MS) by the compound upon intraperitoneal administration at a dose of 50 mg/kg on EAE model (mice immunized for EAE induction and assessed clinically for 21 days); format: functional; conditions: ip, 504 h
PBMC = assay: In vitro inhibitory concentration on the production of pro-inflammatory cytokine IL-2 in PBMC (Peripheral blood mononuclear cells) determined by IL-2 PBMC assay; format: functional, cell-based; conditions: Homo sapiens
[2] = biological target: Vascular endothelial growth factor receptor 2 (Homo sapiens, UniProt P35968); assay: In vitro inhibition of KDR
Vascular endothelial growth factor receptor 2, sequence (P35968 whole entry): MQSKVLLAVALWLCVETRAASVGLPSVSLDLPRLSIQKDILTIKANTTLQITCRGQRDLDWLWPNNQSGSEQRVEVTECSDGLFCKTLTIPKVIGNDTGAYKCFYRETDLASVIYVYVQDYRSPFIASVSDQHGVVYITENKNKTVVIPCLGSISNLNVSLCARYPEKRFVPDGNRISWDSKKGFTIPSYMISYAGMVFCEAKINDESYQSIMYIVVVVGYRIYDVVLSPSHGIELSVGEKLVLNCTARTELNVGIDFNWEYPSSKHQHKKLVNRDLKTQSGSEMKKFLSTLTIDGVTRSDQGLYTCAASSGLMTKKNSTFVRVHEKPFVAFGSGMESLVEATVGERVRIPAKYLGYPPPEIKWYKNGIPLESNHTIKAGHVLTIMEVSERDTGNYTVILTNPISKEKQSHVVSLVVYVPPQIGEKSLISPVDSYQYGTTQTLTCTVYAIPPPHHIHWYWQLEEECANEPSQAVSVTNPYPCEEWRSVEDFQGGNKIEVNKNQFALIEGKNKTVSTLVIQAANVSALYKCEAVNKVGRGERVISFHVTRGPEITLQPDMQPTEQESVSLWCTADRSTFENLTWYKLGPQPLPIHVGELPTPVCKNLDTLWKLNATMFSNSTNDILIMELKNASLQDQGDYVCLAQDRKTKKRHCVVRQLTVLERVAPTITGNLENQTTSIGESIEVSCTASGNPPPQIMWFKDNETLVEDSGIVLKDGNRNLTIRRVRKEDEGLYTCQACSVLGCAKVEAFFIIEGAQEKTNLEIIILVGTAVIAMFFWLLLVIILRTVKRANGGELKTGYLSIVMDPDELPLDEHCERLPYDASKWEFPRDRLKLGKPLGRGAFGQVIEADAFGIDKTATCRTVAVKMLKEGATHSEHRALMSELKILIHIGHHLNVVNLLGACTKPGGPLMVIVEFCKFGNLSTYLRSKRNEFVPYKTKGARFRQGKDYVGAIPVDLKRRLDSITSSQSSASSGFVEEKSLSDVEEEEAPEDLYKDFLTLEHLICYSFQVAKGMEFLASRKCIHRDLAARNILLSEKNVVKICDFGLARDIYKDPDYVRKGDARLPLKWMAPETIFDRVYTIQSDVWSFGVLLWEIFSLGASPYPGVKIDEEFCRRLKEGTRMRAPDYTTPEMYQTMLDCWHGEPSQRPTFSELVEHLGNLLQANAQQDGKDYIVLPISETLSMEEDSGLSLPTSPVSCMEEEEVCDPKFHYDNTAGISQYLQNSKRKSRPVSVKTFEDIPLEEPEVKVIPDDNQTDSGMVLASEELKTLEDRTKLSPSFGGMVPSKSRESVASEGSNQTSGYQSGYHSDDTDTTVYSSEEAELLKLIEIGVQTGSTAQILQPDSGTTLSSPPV

Mus musculus [3] = assay: In vivo percent inhibition of multiple sclerosis (MS) by the compound upon oral administration at a dose of 50 mg/kg on EAE model (mice immunized for EAE induction and assessed clinically for 21 days); format: functional; conditions: 504 h
Mus musculus [4] = assay: In vivo percent inhibition of multiple sclerosis (MS) by the compound upon intraperitoneal administration at a dose of 50 mg/kg on EAE model (mice immunized for EAE induction and assessed clinically for 21 days); non significant effect; format: functional; conditions: ip, 504 h

| Compound | IC50 [2] | inhibition in vivo at 50 mg/kg (Mus musculus [1]) | IC50 (PBMC) | inhibition in vivo at 50 mg/kg (Mus musculus [3]) | inhibition in vivo at 50 mg/kg (Mus musculus [4]) |
| --- | --- | --- | --- | --- | --- |
| O=C1Nc2ccccc2/C1=C/c1c[nH]c2ccccc12 |  | 84% | 8 nM | 32% |  |
| Cc1[nH]c(/C=C2\C(=O)Nc3ccccc32)c(C)c1Br | 320 nM | -78% | 3 nM |  |  |
| COc1ccc(OC)c(/C=C2/C(=O)Nc3ccccc32)c1 |  | -90% | 21 nM | -49% |  |
| Cc1cc(C)c(/C=C2\C(=O)N(CN3CCN(C)CC3)c3ccccc32)[nH]1 |  |  |  | -56% |  |
| Cc1cc(C)c(/C=C2\C(=O)Nc3ccc(O)cc32)[nH]1 | 100 nM |  | 1000 nM |  | -12% |
| O=C1Nc2ccccc2/C1=C/c1ccc[nH]1 |  |  |  |  | -9% |
| Cc1cc(C)c(/C=C2\C(=O)Nc3ccccc32)[nH]1 [SEMAXANIB] |  | -98% |  |  |  |
| Clc1ccc(Nc2nnc(Cc3ccncc3)c3ccccc23)cc1 [VATALANIB] |  |  | > 1000 nM |  |  |

More lines, main results first:

| IC50 [2] | Compound | inhibition in vivo at 50 mg/kg (Mus musculus [1]) | IC50 (PBMC) | inhibition in vivo at 50 mg/kg (Mus musculus [3]) | inhibition in vivo at 50 mg/kg (Mus musculus [4]) |
| --- | --- | --- | --- | --- | --- |
| 8000 nM | CCOC(=O)c1cc(C)c(/C=C2\C(=O)Nc3ccccc32)[nH]1 | -44% | 14 nM |  |  |
| 500 nM | Cc1cc(C)c(/C=C2\C(=O)N(O)c3ccccc32)[nH]1 | -67% | 18 nM |  |  |
| 400 nM | CC(=O)ON1C(=O)/C(=C\c2[nH]c(C)cc2C)c2ccccc21 | -48% | 11 nM |  |  |
| 320 nM | Cc1cc(CO)[nH]c1/C=C1\C(=O)Nc2ccccc21 | -57% | 50 nM |  |  |
| > 10000 nM | Cc1cc(C(=O)NCCO)[nH]c1/C=C1\C(=O)Nc2ccccc21 | -41% | 30 nM |  |  |
| 1000 nM | Cc1[nH]c(/C=C2\C(=O)Nc3ccccc32)c(C)c1Cl | -96% | 4 nM |  |  |
| > 10000 nM | Cc1cc(C(=O)O)[nH]c1/C=C1\C(=O)Nc2ccccc21 |  | > 1000 nM |  | -23% |

From ChEMBL document CHEMBL1141154, “Indolin-2-ones with high in vivo efficacy in a model for multiple sclerosis” (J Med Chem, 2005)
